This note sets out measurements from ChEMBL document CHEMBL1152974, “Ionic interactions for substituted MCH1R inhibitors studied by pK(a) values” (Bioorg Med Chem Lett, 2009).

Data set [1] in a line: Association constant, pKa for quinoline nitrogen. Type of data set: physicochemical.
Data set [2] can be described thus: Association constant, pKa for aliphatic nitrogen. Type of data set: physicochemical.

With `CC(=O)Nc1ccc2nc(C(C)(C)CCN(C)C)ccc2c1`, the pKa (as a rule, the negative logarithm of the acid dissociation constant) in data set [1] is 6.22; in data set [2], 12.4.

On to `CC(=O)Nc1ccc2nc(C(C)CCN(C)C)ccc2c1` (configuration not stated), for which the pKa was determined as 6.56 in data set [1] and 11.8 in data set [2].

In the case of `CC(=O)Nc1ccc2nc(F)ccc2c1`, in data set [1], the pKa is -1.39.

In data set [1], `CC(=O)Nc1ccc2nc(N(C)CCO)ccc2c1` returned a pKa of 8.91.

As for `CC(=O)Nc1ccc2nc(SCCN(C)C)ccc2c1`, the results for the pKa in data set [1] and in data set [2] were 4.33 and 11.6, respectively.

As for `CC(=O)Nc1ccc2nc(OCCN(C)C)ccc2c1`, the pKa in data set [1] turned out to be 4.64; in data set [2], 9.94.

As to `CC(=O)Nc1ccc2ncccc2c1`, the pKa in data set [1] came to 5.51.

For `CC(=O)Nc1ccc2nc(CCCN(C)C)ccc2c1`, the pKa in data set [1] was determined as 8.98; in data set [2], 12.7.

For `CC(=O)Nc1ccc2nc(N(C)CCN(C)C)ccc2c1`, the pKa in data set [1] is 9.05; in data set [2], 10.2.

Take `CC(=O)Nc1ccc2nc(NCCN(C)C)ccc2c1`: the results for the pKa in data set [1] and in data set [2] were 12.2 and 10.8, respectively.
